1 compound from PMC11002875, “Linking triphenylphosphonium cation to a bicyclic hydroquinone improves their antiplatelet effect via the regulation of mitochondrial function” (Redox Biology, 2024) can be followed below.

Series [1] has as its system Washed platelets. The experiment in a line: Intraplatelet (cytosolic) ROS levels (DHE). The format is cell-based, Human. As to conditions: compounds 1, 5 and 10 μM, 10 min. As for the experimental part: (§1) Human platelet purification. The blood sample was obtained from voluntary donors (10 days without antiplatelet medication) who agreed to participate after signing informed consent (Scientific Ethics Committee of the University of Talca N° 04–2022). Briefly, blood anticoagulated with acid-citrate-dextrose (ACD) was obtained in a 4:1 v/v ratio. The sample was centrifuged for 12 min at 250 g to obtain platelet-rich plasma (PRP). Subsequently, the PRP was centrifuged for 8 min at 900 g to obtain the platelet pellet. The plasma supernatant was removed, and the platelets were resuspended in Tyrodes buffer without calcium plus ACD in a ratio of 5:1 v/v. The platelets were centrifuged once more for 8 min at 900 g and the pellet was resuspended in Tyrodes buffer without calcium. Finally, the platelets were counted (Mindray BC-3000 Plus hematology counter, Japan), adjusted to the desired concentration, and used within 3 h.
Intraplatelet ROS levels. Washed platelets (50 × 10^6 platelets/mL) were labeled with the dihydroethidium (DHE) probe 10 μM and incubated for 20 min at 37 °C protected from light. After, compounds (1, 5, and 10 μM) were added to the platelets and incubated for 10 min at 37 °C. The sample was acquired in the BD Facs Lyric flow cytometer (BD Biosciences, USA). Representative dot plots are available in Supplementary Figs. 18 and 27. As a positive control for ROS, antimycin A 20 μM was used.

Series [2] deals with platelet-rich plasma (PRP). The experiment in a line: Clot retraction. As to conditions: 10 μM; thrombin 0.5 Units/mL; 2 h. Set-up: species or system Human. As for the experimental part:
Clot retraction. Blood was obtained in 3.2% citrate tubes, which were centrifuged for 12 min at 250 g to obtain platelet-rich plasma (PRP). The assay was prepared in Khan tubes by adding 750 μL of tyrodes buffer without calcium, 200 μL of PRP, and 5 μL of red blood cells; the mixture was treated with NP4 10 μM or vehicle and incubated for 10 min. A glass rod was positioned in the center of the tube (as a support for clot adhesion) and clot retraction was initiated by adding 50 μl of 10 Units/mL thrombin (final concentration 0.5 Units/mL). Photographs were recorded at 0; 15; 30; 60; 90; and 120 min time intervals. The clots formed after 2 h were weighed to quantify retraction.

In series [3] the test system is Whole blood. The experiment in a line: Bleeding time in vitro, Innovance PFA-200 closure time. Set-up: species or system Human. The note with it: 10 μM, 10 min. As for the experimental part:
Bleeding time in vitro Innovance PFA-200 system. Blood was obtained in 3.2% citrate tubes which were allowed to settle for 30 min before the test. Whole blood was mixed with NP4 10 μM and incubated for 10 min. Subsequently, the sample was loaded into the Collagen/Epinephrine or Collagen/ADP cartridge and the closure time was measured in the Innovance PFA-200 system (Siemens Healthcare Diagnostics Products, Munich, Germany). Eptifibatide 10 μM was used as a control.

Series [4] relates to platelet-rich plasma. Kind of series: Platelet aggregation in platelet-rich plasma. The format is cell-based, Human. As to conditions: collagen 2 μg/mL; PRP. Here is the method: Platelet aggregation in platelet-rich plasma. The blood sample was obtained from voluntary donors (10 days without antiplatelet medication) who agreed to participate after signing informed consent (Scientific Ethics Committee of the University of Talca N° 04–2022). Venous blood was collected by phlebotomy into 3.2% sodium citrate tubes. The tubes were centrifuged at 250 g for 12 min to obtain PRP. After reserving the PRP, the tubes were centrifuged again at 900 g for 10 min to obtain platelet-poor plasma (PPP). For the aggregation reaction, PRP was adjusted to 200-250 × 10^6 platelets/mL with PPP [[63], [64], [65]]. Platelet counting was performed in a counter (Mindray BC-3000 Plus hematology counter, Japan). The samples were preincubated with the compounds under study for 5 min at 37 °C in the aggregometer (Agg RAM- Helena Biosciences). Aggregation was initiated with collagen 2 μg/mL and the reaction was evaluated for 5 min at 37 °C in shaking at 1000 rpm.

The test system of series [5] is Washed platelets. The experiment in a line: Cellular cytotoxicity by release of lactate dehydrogenase (LDH). It counts as cell-based, Human. As to conditions: Supplementary Fig. 1. Here is the method:
as §1
Cellular cytotoxicity by the release of lactate dehydrogenase (LDH). Washed platelets (200-250 × 10^6 platelets/mL) were incubated with the compounds under study or vehicle for 15 min at 37 °C. Then, the platelets were centrifuged at 900 g for 8 min to collect the supernatant. […] The absorbance was analyzed at 490 nm (Microplate Reader Thermo Scientific Multiskan Go, Finland).

In series [6] the test system is complex I from Y. lipolytica mitochondrial membranes reconstituted into proteoliposomes. Kind of series: Proton pumping and activity of reconstituted complex I (ACMA quench in proteoliposomes). It counts as biochemical. As for the experimental part:
Proton pumping and activity of reconstituted complex I. Purification of complex I from Y. lipolytica mitochondrial membranes and reconstitution of complex I into Proteoliposomes was performed as previously described. Briefly, complex I was reconstituted in proteoliposomes (Cxl), and then ACMA (9-Amino-6-Chloro-2-Methoxyacridine) was added to quantify the proton pumping activity. Fluorescence changes were monitored at 25 °C in a Fluorolog-3 spectrofluorometer (Horiba Scientific). Settings: λex = 430 nm, λem = 475, slit 5 nm, time increment 0.2 s. Proteoliposomes (15 μg protein) were diluted in 2 ml assay buffer (20 mM Mops pH 7.2, 80 mM KCl, 0.5 μM valinomycin). After starting the measurement, 0.5 μM ACMA, 70 μM decylubiquinone (DBQ), 125 μM NADH, NP4 […]/vehicle, and Carbonyl cyanide m-chlorophenyl hydrazone (CCCP) 5 μM were added after 50, 100, 150, 200 and 300 s, respectively. The measurements were done in triplicate for 5, 15, 30, 45, 60 and 100 μM NP4. The Average over the time after the addition of NADH/NP4/CCCP till the next addition was taken from each measurement. The quenching after NADH the addition was taken as the zero % value and the dequench with CCCP was set to 100%. The zero value was subtracted from the dequenching with NP4 and the max dequenching with CCCP. The DMSO negative control was measured in duplicate.

Regarding `Cc1c(C)c(O)c2c(c1O)C(=O)C(CCCC[P+](c1ccccc1)(c1ccccc1)c1ccccc1)=CC2(C)C.[Br-]` [NP4, (4-(5,8-dihydroxy-4,4,6,7-tetramethyl-1-oxo-1,4-dihydronaphthalen-2-yl)butyl)triphenyl phosphonium bromide], the melting point is 282 °C (dec.). Besides, the “Cytosolic total ROS levels” value in series [1] is given as “neither NP4 nor NH4 significantly affected”. Also, the “Clot retraction (clot weight)” value in series [2] is given as “does not significantly alter”. Further, in series [3], the “Closure time PFA-200 Collagen/ADP” value was “does not significantly alter” and the “Closure time PFA-200 Collagen/Epinephrine” value is given as “does not significantly alter”. In addition, the “Platelet aggregation in platelet-rich plasma” value in series [4] was “significant decrease”. In addition, the “Safe concentrations (LDH release)” value in series [5] was “below 10 μM”. In series [6] (ACMA dequench relative to CCCP (100%), 5-100 μM NP4), this compound yielded an IC50 of 37.7 ± 1.14 µM. In addition, the “Concentrations that decouple complex I in liposomes” value in series [6] (ACMA fluorescence, proteoliposomes) fell in the range of 30 to 60 µM.

For orientation: melting point means the temperature of the solid-liquid transition. One may read the IC50 as the concentration that gives 50% inhibition. Higher therefore signals weaker potency.
